For data set [1], the system named is Mus musculus. Briefly: Toxicity in Mus musculus albino (mouse) assessed as brownish eye mucus at 90 to 340 mg/kg, ip. The class given is organism-based. On the set-up: dose 90-340 mg/kg, route intraperitoneal. Conditions: in vivo.
Data set [2] deals with Mus musculus. Nature of the data set: Toxicity in Mus musculus albino (mouse) assessed as rapid respiration at 90 to 340 mg/kg, ip. The class given is organism-based. Also noted: dose 90-340 mg/kg, route intraperitoneal. Conditions: in vivo.
Data set [3] deals with Mus musculus. Briefly: Toxicity in Mus musculus albino (mouse) assessed as serum ALP level at 300 mg/kg, po for 10 days (reference value: 31.63 +/- 3.73 U/l). On the set-up: dose 300 mg/kg, route oral. Conditions: in vivo, 240 h. The class given is organism-based.
In data set [4] the test system is Mus musculus. Nature of the data set: Toxicity in ip dosed Mus musculus albino (mouse) assessed as mortality measured per gram body weight. The class given is organism-based. Conditions: in vivo.
Data set [5] relates to Mus musculus. Briefly: Toxicity in Mus musculus albino (mouse) assessed as serum gamma-glutamyl transferase level at 300 mg/kg, po for 10 days (reference value: 4.43 +/- 0.31 U/l). Conditions: in vivo, 240 h. On the set-up: dose 300 mg/kg, route oral. The class given is organism-based.
The test system of data set [6] is Mus musculus. Briefly: Toxicity in Mus musculus albino (mouse) assessed as bluish toe at 90 to 340 mg/kg, ip. The class given is organism-based. Also noted: dose 90-340 mg/kg, route intraperitoneal. Conditions: in vivo.
Data set [7] has as its system Mus musculus. Nature of the data set: Toxicity in Mus musculus albino (mouse) assessed as serum LDH level at 300 mg/kg, po for 10 days (reference value: 217.84 +/- 13.36 U/l). The class given is organism-based. On the set-up: dose 300 mg/kg, route oral. Conditions: in vivo, 240 h.
The subject of data set [8] is Mus musculus. Nature of the data set: Toxicity in Mus musculus albino (mouse) assessed as GPx activity per gram of Hb at 300 mg/kg, po for 10 days (Rvb =179.16 +/- 10.45 U/g Hb). On the set-up: dose 300 mg/kg, route oral. Conditions: in vivo, 240 h. The class given is organism-based.
Data set [9] concerns Mus musculus. Briefly: Toxicity in Mus musculus albino (mouse) assessed as tremor inhind limbs at 90 to 340 mg/kg, ip. The class given is organism-based, Limb. On the set-up: dose 90-340 mg/kg, route intraperitoneal. Conditions: in vivo.
For data set [10], the system named is Mus musculus. Nature of the data set: Anti-inflammatory activity in Mus musculus albino (mouse) assessed as inhibition of formalin-induced paw swelling at 30 mg/kg, po administered 30 min prior formalin challenge measured after 120 min post challenge (reference value: 9.83 +/- 0.071 mm/min). The class given is functional.
The subject of data set [11] is Mus musculus. Briefly: Toxicity in Mus musculus albino (mouse) assessed as serum SGPT level at 300 mg/kg, po for 10 days (reference value: 35.82 +/- 5.26 U/l). The class given is organism-based. On the set-up: dose 300 mg/kg, route oral. Conditions: in vivo, 240 h.
The subject of data set [12] is Mus musculus. Briefly: Toxicity in Mus musculus albino (mouse) assessed as serum SGOT level at 300 mg/kg, po for 10 days (reference value: 9.74 +/- 1.73 U/l). The class given is organism-based. Also noted: dose 300 mg/kg, route oral. Conditions: in vivo, 240 h.
The subject of data set [13] is Mus musculus. Briefly: Toxicity in Mus musculus albino (mouse) assessed as general depression at 90 to 340 mg/kg, ip. The class given is organism-based. Also noted: dose 90-340 mg/kg, route intraperitoneal. Conditions: in vivo.
Data set [14] deals with Mus musculus. Briefly: Toxicity in Mus musculus albino (mouse) assessed as bluish skin at 90 to 340 mg/kg, ip. The class given is organism-based. Also noted: dose 90-340 mg/kg, route intraperitoneal. Conditions: in vivo.
Data set [15] concerns Mus musculus. Nature of the data set: Anti-inflammatory activity in Mus musculus albino (mouse) assessed as inhibition of formalin-induced paw swelling at 30 mg/kg, po administered 30 min prior formalin challenge measured after 30 min post challenge (reference value: 9.46 +/- 0.035 mm/min). The class given is functional.
Data set [16] relates to Mus musculus. Nature of the data set: Toxicity in Mus musculus albino (mouse) assessed as increase in heart rate at 90 to 340 mg/kg, ip. Conditions: in vivo. Also noted: dose 90-340 mg/kg, route intraperitoneal. The class given is organism-based.
Data set [17] has as its system Mus musculus. Nature of the data set: Anti-inflammatory activity in Mus musculus albino (mouse) assessed as inhibition of formalin-induced paw swelling at 30 mg/kg, po administered 30 min prior formalin challenge measured after 60 min post challenge (reference value: 9.73 +/- 0.06 mm/min). The class given is functional.
In data set [18] the test system is Mus musculus. Nature of the data set: Anti-inflammatory activity in Mus musculus albino (mouse) assessed as inhibition of formalin-induced paw swelling at 30 mg/kg, po administered 30 min prior formalin challenge measured after 90 min post challenge (reference value: 9.5 +/- 0.04 mm/min). The class given is functional.
The subject of data set [19] is Mus musculus. Nature of the data set: Toxicity in Mus musculus albino (mouse) assessed as SOD activity per gram of Hb at 300 mg/kg, po for 10 days (reference value: 12.7+/- 2.08 U/g Hb). The class given is organism-based. Conditions: in vivo, 240 h. On the set-up: dose 300 mg/kg, route oral.
The test system of data set [20] is Mus musculus. Nature of the data set: Toxicity in Mus musculus albino (mouse) assessed as drop in temperature at extremeties at 90 to 340 mg/kg, ip. The class given is organism-based. On the set-up: dose 90-340 mg/kg, route intraperitoneal. Conditions: in vivo.
Data set [21] relates to Mus musculus. Nature of the data set: Toxicity in Mus musculus albino (mouse) assessed as serum TBARS level at 300 mg/kg, po for 10 days (reference value: 4.35 +/- 0.86 U/l). The class given is organism-based. On the set-up: dose 300 mg/kg, route oral. Conditions: in vivo, 240 h.
In data set [22] the test system is Mus musculus. Nature of the data set: Toxicity in Mus musculus albino (mouse) assessed as GSH activity at 300 mg/kg, po for 10 days (reference value: 59.57 +/- 5.10 %). The class given is organism-based. Also noted: dose 300 mg/kg, route oral. Conditions: in vivo, 240 h.
The subject of data set [23] is Mus musculus. Briefly: Toxicity in Mus musculus albino (mouse) assessed as general depression at 70 to 410 mg/kg, ip. The class given is organism-based. Also noted: dose 70-410 mg/kg, route intraperitoneal. Conditions: in vivo.
Data set [24] concerns Mus musculus. Nature of the data set: Toxicity in Mus musculus albino (mouse) assessed as tremor inhind limbs at 70 to 410 mg/kg, ip. The class given is organism-based, Limb. On the set-up: dose 70-410 mg/kg, route intraperitoneal. Conditions: in vivo.
Data set [25] relates to Mus musculus. Briefly: Toxicity in Mus musculus albino (mouse) assessed as brownish eye mucus at 70 to 410 mg/kg, ip. The class given is organism-based. Also noted: dose 70-410 mg/kg, route intraperitoneal. Conditions: in vivo.
Data set [26] has as its system Mus musculus. Briefly: Toxicity in Mus musculus albino (mouse) assessed as drop in temperature at extremeties at 70 to 410 mg/kg, ip. The class given is organism-based. On the set-up: dose 70-410 mg/kg, route intraperitoneal. Conditions: in vivo.
Data set [27] concerns Mus musculus. Briefly: Toxicity in Mus musculus albino (mouse) assessed as bluish toe at 70 to 410 mg/kg, ip. The class given is organism-based. On the set-up: dose 70-410 mg/kg, route intraperitoneal. Conditions: in vivo.
In data set [28] the test system is Mus musculus. Briefly: Toxicity in Mus musculus albino (mouse) assessed as bluish skin at 70 to 410 mg/kg, ip. The class given is organism-based. On the set-up: dose 70-410 mg/kg, route intraperitoneal. Conditions: in vivo.
Data set [29] concerns Mus musculus. Nature of the data set: Toxicity in Mus musculus albino (mouse) assessed as increase in heart rate at 70 to 410 mg/kg, ip. The class given is organism-based. On the set-up: dose 70-410 mg/kg, route intraperitoneal. Conditions: in vivo.
The subject of data set [30] is Mus musculus. Briefly: Toxicity in Mus musculus albino (mouse) assessed as rapid respiration at 70 to 410 mg/kg, ip. The class given is organism-based. On the set-up: dose 70-410 mg/kg, route intraperitoneal. Conditions: in vivo.
Data set [31] relates to Mus musculus. Briefly: Toxicity in Mus musculus albino (mouse) assessed as drop in temperature at extremeties at 80 to 375 mg/kg, ip. Conditions: in vivo. Also noted: dose 80-375 mg/kg, route intraperitoneal. The class given is organism-based.

`CCOC(=O)c1nn2c(=O)c3ccccc3nc2n1-c1ccc(S(=O)(=O)NC(C)=O)cc1`: the Activity result in the data set on Mus musculus [1] was “Toxic”; in the data set on Mus musculus [2] it was “Toxic”; in the data set on Mus musculus [3], 28.95 U/L; in the data set with Mus musculus [4] it was 235 millimeter/min; in the data set with Mus musculus [5], 4.51 U/L; with Mus musculus [6], “Toxic”. For the same compound, the Activity in the data set on Mus musculus [7] was 215.78 U/L; in the data set with Mus musculus [8] it was 177 U/g Hb; in the data set on Mus musculus [9], “Toxic”; in the data set on Mus musculus [10], 5.95 millimeter/min; in the data set on Mus musculus [11] it was 31.24 U/L; in the data set on Mus musculus [12] it was 10.66 U/L. Moreover, the Activity entry with Mus musculus [13] is recorded as “Toxic”; with Mus musculus [14], “Toxic”; in the data set with Mus musculus [15], 6.37 millimeter/min; in the data set on Mus musculus [16], “Toxic”; with Mus musculus [17] it was 6.17 millimeter/min; in the data set on Mus musculus [18], 6 millimeter/min. The Activity was 14 U/g Hb in the data set with Mus musculus [19], “Toxic” with Mus musculus [20], 4.02 nmol/mL in the data set on Mus musculus [21] and 58.63% in the data set with Mus musculus [22].
As for `CC(=O)NS(=O)(=O)c1ccc(-n2c(-c3ccccc3O)nn3c(=O)c4ccccc4nc23)cc1`, the Activity entry in the data set with Mus musculus [23] is “Toxic”; with Mus musculus [24], “Toxic”; with Mus musculus [25], “Toxic”; with Mus musculus [3] it was 33.26 U/L; with Mus musculus [4], 213.25 millimeter/min; in the data set on Mus musculus [5] it was 4.36 U/L. Moreover, the Activity was 211.27 U/L in the data set on Mus musculus [7]; 180 U/g Hb in the data set on Mus musculus [8]; “Toxic” in the data set on Mus musculus [26]; 6.02 millimeter/min in the data set with Mus musculus [10]; 28.44 U/L in the data set on Mus musculus [11]; 11.1 U/L in the data set on Mus musculus [12]. For the same compound, the Activity entry in the data set on Mus musculus [27] was “Toxic”; with Mus musculus [15], 6.43 millimeter/min; in the data set on Mus musculus [28] it was “Toxic”; with Mus musculus [29], “Toxic”; in the data set on Mus musculus [17] it was 6.11 millimeter/min; in the data set with Mus musculus [30], “Toxic”. Further, the Activity with Mus musculus [18] is 6.83 millimeter/min; in the data set on Mus musculus [19] it was 12.4 U/g Hb; with Mus musculus [21], 4.11 nmol/mL; with Mus musculus [22] it was 60.12%; in the data set on Mus musculus [31], “Toxic”.

These data come from ChEMBL document CHEMBL3045512, “Synthesis of some novel triazoloquinazolines and triazinoquinazolines and their evaluation for anti-inflammatory activity” (Med Chem Res, 2012).
